Source: PubChem BioAssay (NCI)
Several values for one entry are separate records, joined by “and”; a condition that tells them apart may be missing. Equal values may be shown once.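 Method: 48-hour compound exposure of cells in 96-well plates, five concentrations, linear interpolation of endpoints. The concentration for 50% growth inhibition is given as GI50. The concentration for full growth arrest is given as TGI.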

Tests used:
Assay in all cases: NCI-60 cell line screen, 48 h
UACC-62 melanoma = system: UACC-62 melanoma
A498 renal = system: A498 renal
M14 melanoma = system: M14 melanoma
UO-31 renal = system: UO-31 renal
T-47D breast = system: T-47D breast
LOX IMVI melanoma = system: LOX IMVI melanoma
HCT-116 colon = system: HCT-116 colon
HCT-15 colon = system: HCT-15 colon
HL-60(TB) leukemia = system: HL-60(TB) leukemia
TK-10 renal = system: TK-10 renal

`COc1cc2c(cc1OCCCCC(=O)Nc1ccc(-c3nc4ccccc4s3)cc1)N=C[C@@H]1CCCN1C2=O` was tested, and the GI50 (UACC-62 melanoma) was 1.73 µM, the TGI (UACC-62 melanoma) was 3.39 µM and the GI50 (A498 renal) was 1.87 µM. The TGI (A498 renal) was 4.73 µM, the GI50 (M14 melanoma) was 1.55 µM and the TGI (M14 melanoma) was 3.18 µM. For the same compound, the GI50 (UO-31 renal) was 1.66 µM, the TGI (UO-31 renal) was 3.66 µM and the GI50 (T-47D breast) was 1.96 µM. It also gave a TGI (T-47D breast) of 10.1 µM, a GI50 (LOX IMVI melanoma) of 1.57 µM and a TGI (LOX IMVI melanoma) of 2.91 µM. For the same compound, the GI50 (HCT-116 colon) was 1.86 µM, the TGI (HCT-116 colon) was 5.78 µM and the GI50 (HCT-15 colon) was 2.85 µM. It also gave a TGI (HCT-15 colon) of 9.81 µM, a GI50 (HL-60(TB) leukemia) of 1.77 µM and a TGI (HL-60(TB) leukemia) of 6.31 µM. The GI50 (TK-10 renal) was 3.2 µM and the TGI (TK-10 renal) was 7.97 µM.

`O=C1C[C@@H](c2ccccc2)NCCCCN(O)CCCN1` was tested, and the TGI (UACC-62 melanoma) was over 100 µM, the TGI (A498 renal) was over 100 µM and the TGI (M14 melanoma) was over 100 µM. For the same compound, the TGI (UO-31 renal) was over 100 µM, the TGI (T-47D breast) was over 100 µM and the TGI (LOX IMVI melanoma) was over 100 µM. It also gave a TGI (HCT-116 colon) of over 100 µM, a TGI (HCT-15 colon) of over 100 µM and a TGI (HL-60(TB) leukemia) of over 100 µM. For the same compound, the TGI (TK-10 renal) was over 100 µM.

Work on `CC(=O)OC1CCC2(C)C(CCC3C2CCC2(C)C(C4=CC(=O)OC4)CCC32)C1` (stereo not given) yielded a GI50 (UACC-62 melanoma) of 1.01 µM, a TGI (UACC-62 melanoma) of 2.74 µM and a GI50 (A498 renal) of 1.43 µM. It also gave a TGI (A498 renal) of 3.4 µM, a GI50 (M14 melanoma) of 5.93 µM and a TGI (M14 melanoma) of over 100 µM. It also gave a GI50 (UO-31 renal) of 16.1 µM, a TGI (UO-31 renal) of 49.9 µM and a GI50 (T-47D breast) of 13.1 µM. For the same compound, the TGI (T-47D breast) was 45.5 µM, the GI50 (LOX IMVI melanoma) was 0.42 µM and the TGI (LOX IMVI melanoma) was over 100 µM. It also gave a GI50 (HCT-116 colon) of 7.66 µM, a TGI (HCT-116 colon) of over 100 µM and a GI50 (HCT-15 colon) of 16.2 µM. For the same compound, the TGI (HCT-15 colon) was over 100 µM, the GI50 (HL-60(TB) leukemia) was 7.9 µM and the TGI (HL-60(TB) leukemia) was 30.7 µM. The GI50 (TK-10 renal) was 5.53 µM and the TGI (TK-10 renal) was 22.9 µM.

For `CC1=C[C@H]2c3c(c(O)c(O)c4oc5cc(O)cc(O)c5c(=O)c34)[C@H](c3cc(O)c(O)c4oc5cc(O)cc(O)c5c(=O)c34)[C@H]2C(C)(C)C1`, the GI50 (UACC-62 melanoma) was 1.18 µM and 1.31 µM, the TGI (UACC-62 melanoma) was 2.59 µM and 3.07 µM and the GI50 (A498 renal) was 1.89 µM. For the same compound, the TGI (A498 renal) was 4.63 µM, the GI50 (M14 melanoma) was 1.59 µM and 1.62 µM and the TGI (M14 melanoma) was 5.19 µM and 4.93 µM. For the same compound, the GI50 (UO-31 renal) was 1.38 µM and 1.55 µM, the TGI (UO-31 renal) was 3.28 µM and 8.22 µM and the GI50 (T-47D breast) was 2.78 µM. For the same compound, the TGI (T-47D breast) was 26 µM, the GI50 (LOX IMVI melanoma) was 1.12 µM and 0.87 µM and the TGI (LOX IMVI melanoma) was 2.36 µM and 2.19 µM. For the same compound, the GI50 (HCT-116 colon) was 0.462 µM and 0.947 µM, the TGI (HCT-116 colon) was 1.87 µM and 2.22 µM and the GI50 (HCT-15 colon) was 2.75 µM and 1.62 µM. For the same compound, the TGI (HCT-15 colon) was 16.4 µM and 14 µM, the GI50 (HL-60(TB) leukemia) was 2.04 µM and 2.1 µM and the TGI (HL-60(TB) leukemia) was 5.72 µM and 10.6 µM. For the same compound, the GI50 (TK-10 renal) was 2.12 µM and 3.06 µM and the TGI (TK-10 renal) was 10.5 µM and 14.8 µM.

With `OC(COc1ccc(Cl)cc1Cl)CN1CCCC1` (stereo not given) the TGI (UACC-62 melanoma) was 50.1 µM, the TGI (A498 renal) was over 100 µM and the TGI (M14 melanoma) was 41.1 µM. For the same compound, the TGI (UO-31 renal) was over 100 µM, the TGI (T-47D breast) was over 100 µM and the TGI (LOX IMVI melanoma) was over 100 µM. For the same compound, the TGI (HCT-116 colon) was over 100 µM, the TGI (HCT-15 colon) was over 100 µM and the TGI (HL-60(TB) leukemia) was over 100 µM. For the same compound, the TGI (TK-10 renal) was over 100 µM.

`Cc1sc2nc(-c3ccccn3)c(/C=N/N=C(N)N)n2c1C` gave a GI50 (UACC-62 melanoma) of 4.19 µM, a TGI (UACC-62 melanoma) of 10.4 µM and a GI50 (A498 renal) of 11.8 µM. It also gave a TGI (A498 renal) of 24.4 µM, a GI50 (M14 melanoma) of 7.28 µM and a TGI (M14 melanoma) of 12.1 µM. It also gave a GI50 (UO-31 renal) of 8.94 µM, a TGI (UO-31 renal) of 20.9 µM and a GI50 (T-47D breast) of 3.93 µM. The TGI (T-47D breast) was 10.2 µM, the GI50 (LOX IMVI melanoma) was 4.01 µM and the TGI (LOX IMVI melanoma) was 8.26 µM. For the same compound, the GI50 (HCT-116 colon) was 4.09 µM, the TGI (HCT-116 colon) was 9.74 µM and the GI50 (HCT-15 colon) was 4.98 µM. It also gave a TGI (HCT-15 colon) of 13.5 µM, a GI50 (HL-60(TB) leukemia) of 4.48 µM and a TGI (HL-60(TB) leukemia) of over 100 µM. The GI50 (TK-10 renal) was 5.89 µM and the TGI (TK-10 renal) was 11.2 µM.

With `O=C(Cc1ccc(/C=C/C(=O)c2ncc[nH]2)cc1)Nc1ccc(Br)cc1` the GI50 (UACC-62 melanoma) was 2.85 µM, the TGI (UACC-62 melanoma) was 6.11 µM and the GI50 (A498 renal) was 4.72 µM. The TGI (A498 renal) was 13.7 µM, the GI50 (M14 melanoma) was 3.11 µM and the TGI (M14 melanoma) was 7.83 µM. The GI50 (UO-31 renal) was 1.79 µM, the TGI (UO-31 renal) was 3.86 µM and the GI50 (T-47D breast) was 3.82 µM. The TGI (T-47D breast) was over 16.7 µM, the GI50 (LOX IMVI melanoma) was 0.889 µM and the TGI (LOX IMVI melanoma) was 3.12 µM. It also gave a GI50 (HCT-116 colon) of 0.847 µM, a TGI (HCT-116 colon) of 2.54 µM and a GI50 (HCT-15 colon) of 0.787 µM. For the same compound, the TGI (HCT-15 colon) was 8.83 µM, the GI50 (HL-60(TB) leukemia) was 2.78 µM and the TGI (HL-60(TB) leukemia) was 13.9 µM. It also gave a GI50 (TK-10 renal) of 4.31 µM and a TGI (TK-10 renal) of 12.6 µM.
